Test results as given in patent US4404206A, “Substituted iminoacid derivatives, process for preparing them and their use as enzyme inhibitors” (Science Union et Cie, priority 1979, dated 1983).

System: enzyme responsible for the conversion of angiotension I into angiotension II
Experiment: Inhibition of the angiotensin I pressor response in dogs after intravenous administration (arterial pressure recorded)
Assay type: in vivo
Details: dog
Procedure: The compounds of the invention are tested in […] dogs, maintained in forced respiration by an apparatus.
The aorta is catheterized by way of the femoral arteria, and the arterial pressure is registered by an appropriate instrument.
Angiotension I and II are administered to the animals intravenously at the dose of 0.3 γ/Kg. After registering of the dose/activity relation curve, the compounds of the invention are administered also by the intravenous route and modification of the blood pressure is also registered.
The results obtained by the new compounds are summarized in the table hereinafter and are expressed in percentage of inhibition of the enzyme activity. The numbers in the brackets indicate the dose of the active enantiomer contained in the administered doses.

[1] = dose 10 (2,5) mg/Kg IV, time 15 minutes
[2] = dose 10 (2,5) mg/Kg IV, time 30 minutes
[3] = dose 10 (2,5) mg/Kg IV, time 1 h 30 min.
[4] = dose 10 (2,5) mg/Kg IV, time 1 hour
[5] = dose 10 (2,5) mg/Kg IV, time 2 hours
[6] = dose 10 (2,5) mg/Kg IV, time 3 hours
[7] = dose 20 mg/Kg IV, time 15 minutes
[8] = dose 20 mg/Kg IV, time 30 minutes
[9] = dose 20 mg/Kg IV, time 1 h 30 min.

## C[C@@H](CS)C(=O)N1C2CCCCC2C[C@@H]1C(=O)O (mixture of isomers) [Example 5, N-[3-mercapto 2-(RS)methylpropionyl] 2-(RS) carboxy perhydroindole]
Dose 5 (1,25) mg/Kg IV, time 15 minutes
  Percentage of inhibition (of the enzyme activity): 100%
Dose 5 (1,25) mg/Kg IV, time 30 minutes
  Percentage of inhibition (of the enzyme activity): 100%
Dose 5 (1,25) mg/Kg IV, time 1 h 30 min.
  Percentage of inhibition (of the enzyme activity): 90%
Dose 5 (1,25) mg/Kg IV, time 1 hour
  Percentage of inhibition (of the enzyme activity): 100%
Dose 5 (1,25) mg/Kg IV, time 2 hours
  Percentage of inhibition (of the enzyme activity): 71%
Dose 5 (1,25) mg/Kg IV, time 3 hours
  Percentage of inhibition (of the enzyme activity): 54%
[1]
  Percentage of inhibition (of the enzyme activity): 100%
[2]
  Percentage of inhibition (of the enzyme activity): 92%
[3]
  Percentage of inhibition (of the enzyme activity): 92%
[4]
  Percentage of inhibition (of the enzyme activity): 92%
[5]
  Percentage of inhibition (of the enzyme activity): 92%
[6]
  Percentage of inhibition (of the enzyme activity): 86%

## CC(CS)C(=O)N1C(C(=O)O)CCC2CCCCC21 (racemic) [Example 8, 1-[3 mercapto 2-(RS)methylpropionyl] 2-(RS) carboxy perhydroquinoline.]
[1]
  Percentage of inhibition (of the enzyme activity): 72%
[2]
  Percentage of inhibition (of the enzyme activity): 69%
[3]
  Percentage of inhibition (of the enzyme activity): 50%
[4]
  Percentage of inhibition (of the enzyme activity): 64%
[5]
  Percentage of inhibition (of the enzyme activity): 36%
[6]
  Percentage of inhibition (of the enzyme activity): 31%

## CC(CS)C(=O)N1CC2CCCCC2CC1C(=O)O (stereo not drawn) [Example 1, 2-(3-mercapto-2-(RS)-methylpropionyl)-cis-perhydroisoquinoline-3-carboxylicacid]
[7]
  Percentage of inhibition (of the enzyme activity): 100%
[8]
  Percentage of inhibition (of the enzyme activity): 100%
[9]
  Percentage of inhibition (of the enzyme activity): 76%
Dose 20 mg/Kg IV, time 1 hour
  Percentage of inhibition (of the enzyme activity): 90%
Dose 20 mg/Kg IV, time 2 hours
  Percentage of inhibition (of the enzyme activity): 70%
Dose 20 mg/Kg IV, time 3 hours
  Percentage of inhibition (of the enzyme activity): 42%

## CC(CS)C(=O)N1Cc2ccsc2CC1C(=O)O (racemic) [Example 6]
[7]
  Percentage of inhibition (of the enzyme activity): 47%
[8]
  Percentage of inhibition (of the enzyme activity): 51%
[9]
  Percentage of inhibition (of the enzyme activity): 30%
Dose 20 mg/Kg IV, time 1 hour
  Percentage of inhibition (of the enzyme activity): 37%
Dose 20 mg/Kg IV, time 2 hours
  Percentage of inhibition (of the enzyme activity): 26%
Dose 20 mg/Kg IV, time 3 hours
  Percentage of inhibition (of the enzyme activity): 23%

## C[C@@H](CS)C(=O)N1CC2CCCCC2[C@@H]1C(=O)O (mixture of isomers) [Example 7, N-[3-mercapto 2-(RS)methylpropionyl] 1-(RS) carboxy perhydroisoindole]
[1]
  Percentage of inhibition (of the enzyme activity): 83%
[2]
  Percentage of inhibition (of the enzyme activity): 64%
[3]
  Percentage of inhibition (of the enzyme activity): 48%
[4]
  Percentage of inhibition (of the enzyme activity): 62%
[5]
  Percentage of inhibition (of the enzyme activity): 40%
[6]
  Percentage of inhibition (of the enzyme activity): 26%

## CC(CC(=O)O)C(=O)N1Cc2ccccc2C[C@H]1C(=O)O (mixture of isomers) [Example 9, 2-[3-carboxy 2-(RS)methylpropionyl] 3-(S) carboxy 1,2,3,4-tetrahydroisoquinoline]
[7]
  Percentage of inhibition (of the enzyme activity): 38%
[8]
  Percentage of inhibition (of the enzyme activity): 35%
[9]
  Percentage of inhibition (of the enzyme activity): 25%
Dose 20 mg/Kg IV, time 1 hour
  Percentage of inhibition (of the enzyme activity): 25%
Dose 20 mg/Kg IV, time 2 hours
  Percentage of inhibition (of the enzyme activity): 48%
Dose 20 mg/Kg IV, time 3 hours
  Percentage of inhibition (of the enzyme activity): 25%
